From patent US20240197867A1, “NEURAL CONTROL OF ADAPTIVE IMMUNITY” (The Feinstein Institutes for Medical Research, priority 2021, published 2024)

Biological target: T1, Gi-DREADD (hM4Di) on TRPV1+ neurons (Homo sapiens, UniProt P08173, A203G/Y113C)
T1 construct: expressed in transfected cells; host or cells: TRPV1+ neurons of TRPV1Cre/Gi-DREADD transgenic mice (TRPV1Cre x R26-LSL-Gi-DREADD), in vivo
T1 sequence (P08173 1-479 Y113C/A203G): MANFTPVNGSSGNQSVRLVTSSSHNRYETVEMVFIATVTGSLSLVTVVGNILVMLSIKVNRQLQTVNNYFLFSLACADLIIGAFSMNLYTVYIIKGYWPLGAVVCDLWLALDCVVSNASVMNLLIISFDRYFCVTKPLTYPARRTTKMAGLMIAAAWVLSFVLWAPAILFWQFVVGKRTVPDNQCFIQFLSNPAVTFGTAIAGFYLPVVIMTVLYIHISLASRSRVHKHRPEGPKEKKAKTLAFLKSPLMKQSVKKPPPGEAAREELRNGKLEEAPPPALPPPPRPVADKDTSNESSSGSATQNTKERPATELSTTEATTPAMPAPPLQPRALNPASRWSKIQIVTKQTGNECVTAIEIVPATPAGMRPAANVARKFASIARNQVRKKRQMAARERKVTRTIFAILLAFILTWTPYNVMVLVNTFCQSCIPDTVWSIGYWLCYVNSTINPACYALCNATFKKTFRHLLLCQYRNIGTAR
Test: Chemogenetic silencing of TRPV1+ neurons before intratracheal NP27-OVA immunization; NP-specific antibody titer by ELISA
Assay type: in vivo
Conditions: TRPV1-Gi-DREADD mice; CNO intraperitoneally 30 minutes prior to intratracheal immunization with NP27-OVA; D14 post-immunization; n=11; p=0.0017 vs vehicle
Description: FIG. 1. Silencing of sensory nerves at the time of primary immunization impacts antigen specific antibody responses. TRPV1^Cre/Gi-DREADD mice were administered with vehicle (DMSO) or CNO 30 min prior to immunization. Titer of NP-specific antibodies were monitored using ELISA.
Using an intra-tracheal instillation technique, specific antigens were delivered in the lung. Tracheal instillations are preferred methodology, over inhalation protocols that may primarily target the upper respiratory tract. This allows for making subsequent physiological measurements on test animals, or reinstallation using the same animal. Also, the dose of the inoculum introduced into the lungs can be carefully determined and more accurately delivered to ensure animal recovery. […] TRPV1+ neurons were selectively silenced at the time of immunization using a chemogenetic mouse model. The Gi-DREADD, also known as human muscarinic receptor 4 (hM4Di), is a mutated muscarinic acetylcholine receptor that, when activated by its ligand, CNO, initiates the inhibitory G-protein signaling cascade that inhibits neuronal signaling and/or excitability. TRPV1Cre/Gi-DREADD mice that express Gi-DREADD on TRPV1+ neurons were generated by crossing TRPV1Cre mice with R26-LSLGi-DREADD mice controls. […] Antibody levels were assessed over time. […]

## C[N+]1([O-])CCN(C2=Nc3cc(Cl)ccc3Nc3ccccc32)CC1 [CNO, clozapine-N-oxide]
  Anti-NP IgG1, Mean±SEM: 42,525+14,641 U/mL
